This test concerns HBV. As to the kind of experiment: Anti-viral activity: viral DNA by Q-PCR in tetracycline-responsive HepAD38 cells. The format is cell-based. To be noted: for EC50: HepAD38 cells, viral DNA at day 4 post-induction, Q-PCR; for Improvement Compared to araA: therapeutic effect relative to araA (=1.00). As to the method: Tetracycline-responsive cell lines HepAD38 were used (Ladner et al., 1997), hepatoma cells that have been stably transfected with a cDNA copy of the pregenomic RNA of wild-type virus. Withdrawal of tetracycline from the culture medium results in the initiation of viral replication. Cells were cultured at 37° C. in a humidified 5% CO2/air atmosphere in seeding medium, DMEM/Ham's F12 (50/50) supplemented with 10% (v/v) heat-inactivated fetal calf serum, 100 IU/ml penicillin/50 μg/ml streptomycin mix, 400 μg/ml G418, and 0.3 μg/ml tetracycline.
Upon assay initiation, the cells were seeded in 48-well plates at a density of 1.5×10^5/well. After 2-3 days the cultures were induced for viral production by washing with prewarmed PBS and were fed with 200 μl assay medium (seeding medium without tetracycline and G418) with or without the antiviral compounds. Medium was changed after 3 days. The antiviral effect was quantified by measuring levels of viral DNA [isolated (Qiagen) from the cell cultures] at day 4 post-induction, by a real time quantitative PCR (Q-PCR) and analyzed using a SDS 7000 (Applied Biosystems, Foster City, Calif.).
A plasmid containing the full length insert of the HBV genome was used to prepare the standard curve. The amount of viral DNA produced in treated cultures was expressed as a percentage of the mock treated samples. The cytostatic effect of the various compounds was assessed employing the parent hepatoma cell line HepG2. The effect of the compounds on exponentially growing HepG2 cells was evaluated by means of the MTS method (Promega). Briefly, cells were seeded at a density of 3000/well (96 well plate) and were allowed to proliferate for 3 days in the absence or presence of compounds after which time cell density was determined.

Molecules are shown by their SMILES. ≈ marks a conversion by molar mass, not a printed value.

For `Nc1ncnc2c1ncn2[C@@H]1O[C@H](COP(=O)(O)O)[C@@H](O)[C@@H]1O` [araAMP, araA-monophosphate], the EC50 (in general, the concentration giving half of the maximal effect) was found to be 33 µg/mL (≈ 95 µM) and the “Improvement Compared to araA” value turned out to be 1.35.

Consider `Nc1ncnc2c1ncn2[C@@H]1O[C@H](CO)[C@@H](O)[C@@H]1O` [araA], for which the EC50 was determined as 35 µg/mL (≈ 131 µM) and the “Improvement Compared to araA” value worked out at 1.00.

The record behind these values is patent publication US20070021380A1, “Novel drug delivery compositions” (priority 2005, published 2007).
